Measured values as given in patent US10988459B2 (priority 2015, dated 2021).

Each molecule was assayed against human RIP1 kinase domain (2-375) (Homo sapiens (Human), UniProt Q13546) (assay: biochemical). Conditions: Ki.
Type: biochemical
Method in brief: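 50 nM purified kinase domain from baculovirus-infected insect cells, incubated 2 h with compound in 50 mM Hepes pH 7.5, 30 mM MgCl2, 1 mM DTT, 50 uM ATP, 0.002% Brij-35, 0.5% DMSO. ADP formation read by Transcreener FP at 633 nm excitation. Ki^app fitted with the Morrison tight-binding equation.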

human RIP1 kinase domain (2-375), sequence (Q13546 2-375): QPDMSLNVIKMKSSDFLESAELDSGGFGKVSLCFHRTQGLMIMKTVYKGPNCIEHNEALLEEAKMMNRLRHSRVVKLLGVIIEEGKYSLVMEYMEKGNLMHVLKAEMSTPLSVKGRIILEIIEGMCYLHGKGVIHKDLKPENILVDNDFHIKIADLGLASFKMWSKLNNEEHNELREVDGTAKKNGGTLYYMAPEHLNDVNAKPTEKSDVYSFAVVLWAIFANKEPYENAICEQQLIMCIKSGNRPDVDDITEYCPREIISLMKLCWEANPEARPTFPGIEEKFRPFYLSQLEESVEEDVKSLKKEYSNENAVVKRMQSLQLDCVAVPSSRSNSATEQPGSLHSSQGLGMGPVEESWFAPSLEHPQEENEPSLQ

In the case of `CN1C(=O)[C@@H](NC(=O)c2cn3c(C(F)(F)F)cccc3n2)COc2ccccc21` (single isomer, unassigned) [Example 736], the Ki is reported as 70 nM.

Same assay, conditions: Table 1; apparent Ki (Morrison tight-binding fit); 50 nM RIP1 kinase domain, 50 uM ATP, 2 hours incubation; read-out: RIP1 Ki

First: CC1CCc2n[nH]c(C(=O)N[C@H]3CCc4cc(Cl)ccc4NC3=O)c2C1 (stereo partly drawn) [Example 46, N-((S)-7-chloro-2-oxo-2,3,4,5-tetrahydro-1H-benzo[b]azepin-3-yl)-5-methyl-4,5,6,7-tetrahydro-2H-indazole-3-carboxamide]
Second: CC1CCc2cnc(C(=O)N[C@H]3COc4ccccc4N(C)C3=O)n2C1 (stereo partly drawn) [Example 11, 6-methyl-N—((S)-5-methyl-4-oxo-2,3,4,5-tetrahydrobenzo[b][1,4]oxazepin-3-yl)-5,6,7,8-tetrahydroimidazo[1,5-a]pyridine-3-carboxamide]
The Ki of the first is 2.4-fold lower: 135 nM for the first, 329 nM for the second.

`CN1C(=O)[C@@H](NC(=O)c2ncn3ccc(C(F)(F)F)cc23)CCn2nccc21` [Example 75, (S)-N-(4-methyl-5-oxo-5,6,7,8-tetrahydro-4H-pyrazolo[1,5-a][1,3]diazepin-6-yl)-7-(trifluoromethyl)imidazo[1,5-a]pyridine-1-carboxamide] and `CN1C(=O)C(NC(=O)c2nnc(Cc3ccccc3)[nH]2)CCn2nc(C(F)(F)F)cc21` (stereo not drawn) [Example 30, 5-benzyl-N-[4-methyl-5-oxo-2-(trifluoromethyl)-7,8-dihydro-6H-pyrazolo[1,5-a][1,3]diazepin-6-yl]-4H-1,2,4-triazole-3-carboxamide] are within 1.5-fold of each other in Ki: 231 nM for the first, 208 nM for the second.

Same assay, conditions: Table 3; apparent Ki (Morrison tight-binding fit); 50 nM RIP1 kinase domain, 50 uM ATP, 2 hours incubation; read-out: Ki

In the case of `CCC1CCc2n[nH]c(C(=O)N[C@H]3COc4ccccc4N(C)C3=O)c2C1` (stereo partly drawn) [Example 335, 5-ethyl-N-((S)-5-methyl-4-oxo-2,3,4,5-tetrahydrobenzo[b][1,4]oxazepin-3-yl)-4,5,6,7-tetrahydro-2H-indazole-3-carboxamide], the Ki is reported as 13 nM.

Same assay, conditions: Table 5; apparent Ki (Morrison tight-binding fit); 50 nM RIP1 kinase domain, 50 uM ATP, 2 hours incubation; read-out: Ki

Compared with `CN1C(=O)[C@@H](NC(=O)c2nc3n(n2)CCNC3c2ccccc2)COc2ccccc21` (stereo partly drawn) [Example 723, N-[(3S)-5-methyl-4-oxo-2,3-dihydro-1,5-benzoxazepin-3-yl]-8-phenyl-5,6,7,8-tetrahydro-[1,2,4]triazolo[1,5-a]pyrazine-2-carboxamide], `CN1C(=O)[C@@H](NC(=O)c2ncn(Cc3ccccc3)n2)CCn2nc(CCN3CC(F)(F)C3)cc21` [Example 772] is 1.8-fold lower in Ki: 206 nM for the first, 115 nM for the second.

Same assay, conditions: human RIP1 kinase domain (2-375), 50 uM ATP, 2 hours incubation, Transcreener ADP assay; read-out: RIP1 Ki

Going from `CN1C(=O)[C@@H](NC(=O)c2ncc3c(n2)C(C)(C)OC3)COc2ccccc21` [Example 217, (S)-7,7-dimethyl-N-(5-methyl-4-oxo-2,3,4,5-tetrahydrobenzo[b][1,4]oxazepin-3-yl)-5,7-dihydrofuro[3,4-d]pyrimidine-2-carboxamide] to `Cc1cc2n(n1)CC[C@H](NC(=O)c1ncn(Cc3ccccc3)n1)C(=O)N2C` [Example 172, (S)-1-benzyl-N-(2,4-dimethyl-5-oxo-5,6,7,8-tetrahydro-4H-pyrazolo[1,5-a][1,3]diazepin-6-yl)-1H-1,2,4-triazole-3-carboxamide], the Ki falls from 61.7 nM to 22.9 nM (2.7-fold).

In the case of `CN1C(=O)[C@@H](NC(=O)c2ncn(Cc3ccccc3)n2)CC[C@@H]2[C@H]1C2(F)F` (single isomer, unassigned) [Example 129], the Ki is reported as 388 nM.

Same assay, conditions: human RIP1 kinase domain (2-375), Transcreener ADP assay, 50 uM ATP, 2 hours incubation; read-out: RIP1 Ki

`Cc1nn2c(c1C)N(C)C(=O)[C@@H](NC(=O)c1nnc(Cc3ccc(F)cc3)[nH]1)CC2` [Example 330, (S)-5-(4-fluorobenzyl)-N-(2,3,4-trimethyl-5-oxo-5,6,7,8-tetrahydro-4H-pyrazolo[1,5-a][1, 3]diazepin-6-yl)-4H-1,2,4-triazole-3-carboxamide] and `CN1C(=O)C(NC(=O)c2ncn(Cc3ccc(F)cc3)n2)CCn2nc(C3CC3)cc21` (stereo not drawn) [Example 257, N-(2-cyclopropyl-4-methyl-5-oxo-5,6,7,8-tetrahydro-4H-pyrazolo[1,5-a][1,3]diazepin-6-yl)-1-(4-fluorobenzyl)-1H-1,2,4-triazole-3-carboxamide] are within 1.5-fold of each other in Ki: 103 nM for the first, 82.9 nM for the second.

`CC(C)c1cnc2[nH]nc(C(=O)N[C@H]3COc4ccccc4N(C)C3=O)c2c1` [Example 238, (S)-5-isopropyl-N-(5-methyl-4-oxo-2,3,4,5-tetrahydrobenzo[b][1,4]oxazepin-3-yl)-1H-pyrazolo[3,4-b]pyridine-3-carboxamide] and `CC[C@@]1(C)OCc2cnc(C(=O)N[C@H]3COc4cc(F)cc(F)c4NC3=O)cc21` [Example 244, (R)—N—((S)-6,8-difluoro-4-oxo-2,3,4,5-tetrahydrobenzo[b][1,4]oxazepin-3-yl)-1-ethyl-1-methyl-1,3-dihydrofuro[3,4-c]pyridine-6-carboxamide] are within 1.5-fold of each other in Ki: 54.7 nM for the first, 36.8 nM for the second.

First: CN1C(=O)[C@@H](NC(=O)c2ncn(Cc3ccc(F)cc3)n2)CCn2nc([C@@H]3CC3(F)F)cc21 [Example 323, N—((S)-2-((S)-2,2-difluorocyclopropyl)-4-methyl-5-oxo-5,6,7,8-tetrahydro-4H-pyrazolo[1,5-a][1,3]diazepin-6-yl)-1-(4-fluorobenzyl)-1H-1,2,4-triazole-3-carboxamide]
Second: Cc1cc2n(n1)CC[C@H](NC(=O)c1cc3c(cn1)COC3(C)CC(F)(F)F)C(=O)N2C (stereo partly drawn) [Example 266, N—((S)-2,4-dimethyl-5-oxo-5,6,7,8-tetrahydro-4H-pyrazolo[1,5-a][1,3]diazepin-6-yl)-1-m ethyl-1-(2,2,2-trifluoroethyl)-1,3-dihydrofuro[3,4-c]pyridine-6-carboxamide]
The Ki of the first is 22-fold lower: 57.8 nM for the first, 1300 nM for the second.

Same assay, conditions: tight-binding apparent inhibition constant; human RIP1 kinase domain (2-375) 50 nM, 50 uM ATP, 2 hours; read-out: Ki

Going from `CN1C(=O)[C@@H](NC(=O)c2nc3n(n2)C(C2CCOC2)CCC3)CCn2nccc21` (stereo partly drawn) [Example 390, N—((S)-4-methyl-5-oxo-5,6,7,8-tetrahydro-4H-pyrazolo[1,5-a][1,3]diazepin-6-yl)-5-(tetra hydrofuran-3-yl)-5,6,7,8-tetrahydro-[1,2,4]triazolo[1,5-a]pyridine-2-carboxamide] to `CN1C(=O)[C@@H](NC(=O)c2nc3n(n2)C(C2CCOCC2)CCC3)COc2ccccc21` (stereo partly drawn) [Example 408, N—((S)-5-methyl-4-oxo-2,3,4,5-tetrahydrobenzo[b][1,4]oxazepin-3-yl)-5-(tetrahydro-2H-pyran-4-yl)-5,6,7,8-tetrahydro-[1,2,4]triazolo[1,5-a]pyridine-2-carboxamide], the Ki falls from 3000 nM to 147 nM (20-fold). The second binds more tightly here.

Going from `Cc1cc2n(n1)CC[C@H](NC(=O)c1ncn(Cc3ccccc3C#N)n1)C(=O)N2C` [Example 590, 1-[(2-cyanophenyl)methyl]-N-(6S)-2,4-dimethyl-5-oxo-7,8-dihydro-6H-pyrazolo[1,5-a][1, 3]diazepin-6-yl-1,2,4-triazole-3-carboxamide] to `Cc1cc2n(n1)CC[C@H](NC(=O)c1nc3n(n1)[C@@H](c1ccccc1F)CC3)C(=O)N2C` [Example 666, (5R)-5-(2-fluorophenyl)-N-[(6S)-2,4-dimethyl-5-oxo-7,8-dihydro-6H-pyrazolo[1,5-a][1,3]diazepin-6-yl]-6,7-dihydro-5H-pyrrolo[1,2-b][1,2,4]triazole-2-carboxamide], the Ki falls from 700 nM to 40 nM (18-fold).

Compared with `Cc1cc2n(n1)CC[C@H](NC(=O)c1nnc(Cc3cccc(F)c3F)[nH]1)C(=O)N2C` [Example 513, 5-[(2,3-difluorophenyl)methyl]-N-(6S)-2,4-dimethyl-5-oxo-7,8-dihydro-6H-pyrazolo[1,5-a][1,3]diazepin-6-yl-4H-1,2,4-triazole-3-carboxamide], `Cc1cc2n(n1)CC[C@H](NC(=O)c1ncn(C[C@H]3C[C@@H](C(F)(F)F)C3)n1)C(=O)N2C` [Example 492] is 6.2-fold higher in Ki: 29 nM for the first, 180 nM for the second.

`CCC(C)(O)c1ccnc(C(=O)N[C@H]2COc3ccccc3N(C)C2=O)c1` (stereo partly drawn) [Example 488, 4-(1-hydroxy-1-methyl-propyl)-N-[(3S)-5-methyl-4-oxo-2,3-dihydro-1,5-benzoxazepin-3-yl]pyridine-2-carboxamide] gave a Ki of 1800 nM.
